{"source": "patent US20150105252A1", "about": "“SUBSTITUTED PYRAZOLES AS HERBICIDES” (E I DU PONT DE NEMOURS AND COMPANY, priority 2013, published 2015)", "key": {"[1]": {"system": "bromegrass, downy", "assay": "Test D postemergence", "format": "in vivo, Bromus tectorum", "details": "scale 0 to 100", "outline": "(§1)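 Visual 0–100 control ratings at 14–21 days in a controlled growth environment. Application preemergence onto silt loam or postemergence onto 2–18 cm seedlings, using a non-phytotoxic solvent formulation with surfactant.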"}, "[2]": {"system": "kochia", "assay": "Test D preemergence", "format": "in vivo, Kochia scoparia", "details": "Preemergence, scale 0 to 100", "outline": "as §1"}, "[3]": {"system": "galium", "assay": "Test D postemergence", "format": "in vivo, Galium aparine", "details": "scale 0 to 100", "outline": "as §1"}, "[4]": {"system": "bromegrass, downy", "assay": "Test D preemergence", "format": "in vivo, Bromus tectorum", "details": "Preemergence, scale 0 to 100", "outline": "as §1"}, "[5]": {"system": "buckwheat, wild", "assay": "Test D postemergence", "format": "in vivo, Polygonum convolvulus", "details": "scale 0 to 100", "outline": "as §1"}, "[6]": {"system": "field violet", "assay": "Test D preemergence", "format": "in vivo, Viola arvensis", "details": "Preemergence, scale 0 to 100", "outline": "as §1"}, "[7]": {"system": "canarygrass", "assay": "Test D postemergence", "format": "in vivo, Phalaris minor", "details": "scale 0 to 100", "outline": "as §1"}, "[8]": {"system": "bluegrass", "assay": "Test D preemergence", "format": "in vivo, Poa annua", "details": "Preemergence, scale 0 to 100", "outline": "as §1"}, "[9]": {"system": "mustard, wild", "assay": "Test D preemergence", "format": "in vivo, Sinapis arvensis", "details": "Preemergence, scale 0 to 100", "outline": "as §1"}, "[10]": {"system": "bluegrass", "assay": "Test D postemergence", "format": "in vivo, Poa annua", "details": "scale 0 to 100", "outline": "as §1"}, "[11]": {"system": "chamomile", "assay": "Test D preemergence", "format": "in vivo, Matricaria inodora", "details": "Preemergence, scale 0 to 100", "outline": "as §1"}, "[12]": {"system": "foxtail, green", "assay": "Test D preemergence", "format": "in vivo, Setaria viridis", "details": "Preemergence, scale 0 to 100", "outline": "as §1"}, "[13]": {"system": "deadnettle", "assay": "Test D postemergence", "format": "in vivo, Lamium amplexicaule", "details": "scale 0 to 100", "outline": "as §1"}, "[14]": {"system": "kochia", "assay": "Test D postemergence", "format": "in vivo, Kochia scoparia", "details": "scale 0 to 100", "outline": "as §1"}, "[15]": {"system": "chickweed", "assay": "Test D postemergence", "format": "in vivo, Stellaria media", "details": "scale 0 to 100", "outline": "as §1"}, "[16]": {"system": "field violet", "assay": "Test D postemergence", "format": "in vivo, Viola arvensis", "details": "scale 0 to 100", "outline": "as §1"}, "[17]": {"system": "windgrass", "assay": "Test D postemergence", "format": "in vivo, Apera spica-venti", "details": "scale 0 to 100", "outline": "as §1"}, "[18]": {"system": "field poppy", "assay": "Test D postemergence", "format": "in vivo, Papaver rhoeas", "details": "scale 0 to 100", "outline": "as §1"}, "[19]": {"system": "speedwell", "assay": "Test D preemergence", "format": "in vivo, Veronica persica", "details": "Preemergence, scale 0 to 100", "outline": "as §1"}, "[20]": {"system": "radish, wild", "assay": "Test D preemergence", "format": "in vivo, Raphanus raphanistrum", "details": "Preemergence, scale 0 to 100", "outline": "as §1"}}}
{"smiles": "CCc1cc(C(=O)NCC(F)(F)F)nn1Cc1ccnc(SC(F)(F)F)c1", "note": "[Compound 214]", "values": [{"measurement": "Bromegrass, Downy plant response rating", "setting": "[1]; Postemergence, 31 g ai/ha", "result": 15}, {"measurement": "Bromegrass, Downy plant response rating", "setting": "[1]; Postemergence, 125 g ai/ha", "result": 20}, {"measurement": "Bromegrass, Downy plant response rating", "setting": "[1]; Postemergence, 250 g ai/ha", "result": 20}, {"measurement": "Bromegrass, Downy plant response rating", "setting": "[1]; postemergence, 62 g ai/ha", "result": 15}, {"measurement": "Plant response rating, Kochia", "setting": "[2]; 62 g ai/ha", "result": 70}, {"measurement": "Plant response rating, Kochia", "setting": "[2]; 125 g ai/ha", "result": 100}, {"measurement": "Plant response rating, Kochia", "setting": "[2]; 250 g ai/ha", "result": 100}, {"measurement": "Galium plant response rating", "setting": "[3]; Postemergence, 31 g ai/ha", "result": 80}, {"measurement": "Galium plant response rating", "setting": "[3]; Postemergence, 125 g ai/ha", "result": 80}, {"measurement": "Galium plant response rating", "setting": "[3]; Postemergence, 250 g ai/ha", "result": 100}, {"measurement": "Galium plant response rating", "setting": "[3]; postemergence, 62 g ai/ha", "result": 80}, {"measurement": "Plant response rating, Bromegrass, Downy", "setting": "[4]; 31 g ai/ha", "result": 15}, {"measurement": "Plant response rating, Bromegrass, Downy", "setting": "[4]; 62 g ai/ha", "result": 25}, {"measurement": "Plant response rating, Bromegrass, Downy", "setting": "[4]; 125 g ai/ha", "result": 35}, {"measurement": "Plant response rating, Bromegrass, Downy", "setting": "[4]; 250 g ai/ha", "result": 80}, {"measurement": "Buckwheat, Wild plant response rating", "setting": "[5]; Postemergence, 31 g ai/ha", "result": 70}, {"measurement": "Buckwheat, Wild plant response rating", "setting": "[5]; Postemergence, 125 g ai/ha", "result": 70}, {"measurement": "Buckwheat, Wild plant response rating", "setting": "[5]; Postemergence, 250 g ai/ha", "result": 80}, {"measurement": "Buckwheat, Wild plant response rating", "setting": "[5]; postemergence, 62 g ai/ha", "result": 70}, {"measurement": "Plant response rating, Field Violet", "setting": "[6]; 62 g ai/ha", "result": 100}, {"measurement": "Plant response rating, Field Violet", "setting": "[6]; 125 g ai/ha", "result": 100}, {"measurement": "Plant response rating, Field Violet", "setting": "[6]; 250 g ai/ha", "result": 100}, {"measurement": "Canarygrass plant response rating", "setting": "[7]; Postemergence, 31 g ai/ha", "result": 15}, {"measurement": "Canarygrass plant response rating", "setting": "[7]; Postemergence, 125 g ai/ha", "result": 15}, {"measurement": "Canarygrass plant response rating", "setting": "[7]; Postemergence, 250 g ai/ha", "result": 30}, {"measurement": "Canarygrass plant response rating", "setting": "[7]; postemergence, 62 g ai/ha", "result": 15}, {"measurement": "Plant response rating, Bluegrass", "setting": "[8]; 31 g ai/ha", "result": 40}, {"measurement": "Plant response rating, Bluegrass", "setting": "[8]; 62 g ai/ha", "result": 65}, {"measurement": "Plant response rating, Bluegrass", "setting": "[8]; 125 g ai/ha", "result": 85}, {"measurement": "Plant response rating, Bluegrass", "setting": "[8]; 250 g ai/ha", "result": 100}, {"measurement": "Plant response rating, Mustard, Wild", "setting": "[9]; 62 g ai/ha", "result": 100}, {"measurement": "Plant response rating, Mustard, Wild", "setting": "[9]; 125 g ai/ha", "result": 100}, {"measurement": "Plant response rating, Mustard, Wild", "setting": "[9]; 250 g ai/ha", "result": 100}, {"measurement": "Bluegrass plant response rating", "setting": "[10]; Postemergence, 31 g ai/ha", "result": 15}, {"measurement": "Bluegrass plant response rating", "setting": "[10]; Postemergence, 125 g ai/ha", "result": 15}, {"measurement": "Bluegrass plant response rating", "setting": "[10]; Postemergence, 250 g ai/ha", "result": 20}, {"measurement": "Bluegrass plant response rating", "setting": "[10]; postemergence, 62 g ai/ha", "result": 15}, {"measurement": "Plant response rating, Chamomile", "setting": "[11]; 31 g ai/ha", "result": 50}, {"measurement": "Plant response rating, Chamomile", "setting": "[11]; 62 g ai/ha", "result": 100}, {"measurement": "Plant response rating, Chamomile", "setting": "[11]; 125 g ai/ha", "result": 100}, {"measurement": "Plant response rating, Chamomile", "setting": "[11]; 250 g ai/ha", "result": 100}, {"measurement": "Plant response rating, Foxtail, Green", "setting": "[12]; 62 g ai/ha", "result": 100}, {"measurement": "Plant response rating, Foxtail, Green", "setting": "[12]; 125 g ai/ha", "result": 100}, {"measurement": "Plant response rating, Foxtail, Green", "setting": "[12]; 250 g ai/ha", "result": 100}, {"measurement": "Deadnettle plant response rating", "setting": "[13]; Postemergence, 31 g ai/ha", "result": 50}, {"measurement": "Deadnettle plant response rating", "setting": "[13]; Postemergence, 125 g ai/ha", "result": 60}, {"measurement": "Deadnettle plant response rating", "setting": "[13]; Postemergence, 250 g ai/ha", "result": 70}, {"measurement": "Deadnettle plant response rating", "setting": "[13]; postemergence, 62 g ai/ha", "result": 50}, {"measurement": "Kochia plant response rating", "setting": "[14]; Postemergence, 31 g ai/ha", "result": 70}, {"measurement": "Kochia plant response rating", "setting": "[14]; Postemergence, 125 g ai/ha", "result": 80}, {"measurement": "Kochia plant response rating", "setting": "[14]; Postemergence, 250 g ai/ha", "result": 85}, {"measurement": "Kochia plant response rating", "setting": "[14]; postemergence, 62 g ai/ha", "result": 70}, {"measurement": "Chickweed plant response rating", "setting": "[15]; Postemergence, 31 g ai/ha", "result": 65}, {"measurement": "Chickweed plant response rating", "setting": "[15]; Postemergence, 125 g ai/ha", "result": 70}, {"measurement": "Chickweed plant response rating", "setting": "[15]; Postemergence, 250 g ai/ha", "result": 70}, {"measurement": "Chickweed plant response rating", "setting": "[15]; postemergence, 62 g ai/ha", "result": 65}, {"measurement": "Field Violet plant response rating", "setting": "[16]; Postemergence, 31 g ai/ha", "result": 100}, {"measurement": "Field Violet plant response rating", "setting": "[16]; Postemergence, 125 g ai/ha", "result": 100}, {"measurement": "Field Violet plant response rating", "setting": "[16]; Postemergence, 250 g ai/ha", "result": 100}, {"measurement": "Field Violet plant response rating", "setting": "[16]; postemergence, 62 g ai/ha", "result": 100}, {"measurement": "Windgrass plant response rating", "setting": "[17]; Postemergence, 31 g ai/ha", "result": 20}, {"measurement": "Windgrass plant response rating", "setting": "[17]; Postemergence, 125 g ai/ha", "result": 30}, {"measurement": "Windgrass plant response rating", "setting": "[17]; Postemergence, 250 g ai/ha", "result": 40}, {"measurement": "Windgrass plant response rating", "setting": "[17]; postemergence, 62 g ai/ha", "result": 20}, {"measurement": "Field Poppy plant response rating", "setting": "[18]; Postemergence, 31 g ai/ha", "result": 70}, {"measurement": "Field Poppy plant response rating", "setting": "[18]; Postemergence, 125 g ai/ha", "result": 70}, {"measurement": "Field Poppy plant response rating", "setting": "[18]; Postemergence, 250 g ai/ha", "result": 80}, {"measurement": "Field Poppy plant response rating", "setting": "[18]; postemergence, 62 g ai/ha", "result": 70}, {"measurement": "Plant response rating, Speedwell", "setting": "[19]; 62 g ai/ha", "result": 100}, {"measurement": "Plant response rating, Speedwell", "setting": "[19]; 125 g ai/ha", "result": 100}, {"measurement": "Plant response rating, Speedwell", "setting": "[19]; 250 g ai/ha", "result": 100}, {"measurement": "Plant response rating, Radish, Wild", "setting": "[20]; 62 g ai/ha", "result": 100}, {"measurement": "Plant response rating, Radish, Wild", "setting": "[20]; 125 g ai/ha", "result": 100}, {"measurement": "Plant response rating, Radish, Wild", "setting": "[20]; 250 g ai/ha", "result": 100}]}
